Earlier results, collected in patent US9260379B2 (Ocera Therapeutics, Inc., priority 2010, dated 2016).

Conditions: free acid

O=C(O)Cc1ccccc1 [phenyl acetic acid]
pKa: ~4.28
